Data from PubChem BioAssay AID1963829 (Molecular Pharmacology Branch, DTP, NCI, 2024).

Test system: 935938-334-R-J1-PDC complex spheroid viability
Experiment: Anticancer human tumor 935938-334-R-J1-PDC patient-derived small intestine adenocarcinoma cell line growth inhibition [POLQ]
Conditions: for IC50: curve of first compound; for viability, T/C: stronger effect = lower value
Summary of the method: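 PDC + HUVEC + MSC complex spheroids; POLQ inhibitors ± partner drugs; top conc. at/near clinical Cmax, else 10 microM (SN-38 1 microM), half-log dilutions; 37 degrees C, 5% CO2.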

[1] = second compound 0.0316 µM, first compound 0.00316 µM
[2] = second compound 0.0316 µM, first compound 0.01 µM
[3] = second compound 0.0316 µM, first compound 0.0316 µM
[4] = second compound 0.0316 µM, first compound 0.1 µM
[5] = second compound 0.0316 µM, first compound 0.316 µM
[6] = second compound 0.0316 µM, first compound 1 µM
[7] = second compound 0.1 µM, first compound 0.00316 µM
[8] = second compound 0.1 µM, first compound 0.01 µM
[9] = second compound 0.1 µM, first compound 0.0316 µM
[10] = second compound 0.1 µM, first compound 0.1 µM
[11] = second compound 0.1 µM, first compound 0.316 µM
[12] = second compound 0.1 µM, first compound 1 µM
[13] = second compound 0.316 µM, first compound 0.00316 µM
[14] = second compound 0.316 µM, first compound 0.01 µM
[15] = second compound 0.316 µM, first compound 0.0316 µM
[16] = second compound 0.316 µM, first compound 0.1 µM
[17] = second compound 0.316 µM, first compound 0.316 µM
[18] = second compound 0.316 µM, first compound 1 µM
[19] = second compound 1 µM, first compound 0.00316 µM
[20] = second compound 1 µM, first compound 0.01 µM
[21] = second compound 1 µM, first compound 0.0316 µM
[22] = second compound 1 µM, first compound 0.1 µM
[23] = second compound 1 µM, first compound 0.316 µM
[24] = second compound 1 µM, first compound 1 µM
[25] = second compound 3.16 µM, first compound 0.00316 µM
[26] = second compound 3.16 µM, first compound 0.01 µM
[27] = second compound 3.16 µM, first compound 0.0316 µM
[28] = second compound 3.16 µM, first compound 0.1 µM
[29] = second compound 3.16 µM, first compound 0.316 µM
[30] = second compound 3.16 µM, first compound 1 µM
[31] = second compound 10 µM, first compound 0.00316 µM
[32] = second compound 10 µM, first compound 0.01 µM
[33] = second compound 10 µM, first compound 0.0316 µM
[34] = second compound 10 µM, first compound 0.1 µM
[35] = second compound 10 µM, first compound 0.316 µM
[36] = second compound 10 µM, first compound 1 µM
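Further: spheroids exposed to drugs for seven days before viability read.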
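Wherever viability, T/C is given: 100% = DMSO vehicle control wells.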

## C=CCn1c(=O)c2cnc(Nc3ccc(N4CCN(C)CC4)cc3)nc2n1-c1cccc(C(C)(C)O)n1 + Cc1cccc(N(C)C(=O)C2C(O)CCN2c2nc(C)cc(C(F)(F)F)c2C#N)c1
Second compound 0.0316 µM
  IC50: 591 nM
Second compound 0.1 µM
  IC50: 500 nM
Second compound 0.316 µM
  IC50: 513 nM
Second compound 1 µM
  IC50: 669 nM
Second compound 3.16 µM
  IC50: 595 nM
Second compound 10 µM
  IC50: 516 nM
[1]
  viability, T/C: 86.3%
[2]
  viability, T/C: 67.3%
[3]
  viability, T/C: 80%
[4]
  viability, T/C: 85.8%
[5]
  viability, T/C: 77.8%
[6]
  viability, T/C: 26.6%
[7]
  viability, T/C: 93%
[8]
  viability, T/C: 87.5%
[9]
  viability, T/C: 97%
[10]
  viability, T/C: 107%
[11]
  viability, T/C: 66%
[12]
  viability, T/C: 25.7%
[13]
  viability, T/C: 90.4%
[14]
  viability, T/C: 110%
[15]
  viability, T/C: 83.6%
[16]
  viability, T/C: 95.9%
[17]
  viability, T/C: 67.8%
[18]
  viability, T/C: 25.5%
[19]
  viability, T/C: 94.8%
[20]
  viability, T/C: 98.6%
[21]
  viability, T/C: 106%
[22]
  viability, T/C: 104%
[23]
  viability, T/C: 92.1%
[24]
  viability, T/C: 27%
[25]
  viability, T/C: 69.9%
[26]
  viability, T/C: 112%
[27]
  viability, T/C: 74.9%
[28]
  viability, T/C: 87.7%
[29]
  viability, T/C: 78.4%
[30]
  viability, T/C: 26.2%
[31]
  viability, T/C: 103%
[32]
  viability, T/C: 101%
[33]
  viability, T/C: 88.7%
[34]
  viability, T/C: 96.4%
[35]
  viability, T/C: 72.2%
[36]
  viability, T/C: 19.6%

## CC[C@@]1(O)C(=O)OCc2c1cc1n(c2=O)Cc2cc3c(CN(C)C)c(O)ccc3nc2-1 + Cc1cccc(N(C)C(=O)C2C(O)CCN2c2nc(C)cc(C(F)(F)F)c2C#N)c1
Second compound 0.0316 µM
  IC50: > 100 nM
Second compound 0.1 µM
  IC50: > 100 nM
Second compound 0.316 µM
  IC50: > 100 nM
Second compound 1 µM
  IC50: 91.8 nM
Second compound 3.16 µM
  IC50: > 100 nM
Second compound 10 µM
  IC50: > 100 nM
Second compound 0.0316 µM, first compound 0.000316 µM
  viability, T/C: 123%
Second compound 0.0316 µM, first compound 0.001 µM
  viability, T/C: 111%
[1]
  viability, T/C: 95.1%
[2]
  viability, T/C: 90.4%
[3]
  viability, T/C: 70.6%
[4]
  viability, T/C: 69.2%
Second compound 0.1 µM, first compound 0.000316 µM
  viability, T/C: 105%
Second compound 0.1 µM, first compound 0.001 µM
  viability, T/C: 113%
[7]
  viability, T/C: 109%
[8]
  viability, T/C: 128%
[9]
  viability, T/C: 68.5%
[10]
  viability, T/C: 82.7%
Second compound 0.316 µM, first compound 0.000316 µM
  viability, T/C: 112%
Second compound 0.316 µM, first compound 0.001 µM
  viability, T/C: 102%
[13]
  viability, T/C: 118%
[14]
  viability, T/C: 88%
[15]
  viability, T/C: 89.9%
[16]
  viability, T/C: 51.2%
Second compound 1 µM, first compound 0.000316 µM
  viability, T/C: 126%
Second compound 1 µM, first compound 0.001 µM
  viability, T/C: 115%
[19]
  viability, T/C: 92.9%
[20]
  viability, T/C: 111%
[21]
  viability, T/C: 79.9%
[22]
  viability, T/C: 46.3%
Second compound 3.16 µM, first compound 0.000316 µM
  viability, T/C: 101%
Second compound 3.16 µM, first compound 0.001 µM
  viability, T/C: 92.9%
[25]
  viability, T/C: 112%
[26]
  viability, T/C: 112%
[27]
  viability, T/C: 68.4%
[28]
  viability, T/C: 54%
Second compound 10 µM, first compound 0.000316 µM
  viability, T/C: 97%
Second compound 10 µM, first compound 0.001 µM
  viability, T/C: 95.3%
[31]
  viability, T/C: 84.7%
[32]
  viability, T/C: 84.5%
[33]
  viability, T/C: 101%
[34]
  viability, T/C: 55.2%

## CCc1c2c(nc3ccc(O)cc13)-c1cc3c(c(=O)n1C2)COC(=O)[C@]3(O)CC + Cc1cccc(N(C)C(=O)C2C(O)CCN2c2nc(C)cc(C(F)(F)F)c2C#N)c1
Second compound 0.0316 µM
  IC50: 15.8 nM
Second compound 0.1 µM
  IC50: 19.9 nM
Second compound 0.316 µM
  IC50: 24.5 nM
Second compound 1 µM
  IC50: 22.7 nM
Second compound 3.16 µM
  IC50: 24.3 nM
Second compound 10 µM
  IC50: 26.1 nM
[1]
  viability, T/C: 96.3%
[2]
  viability, T/C: 55.6%
[3]
  viability, T/C: 41.4%
[4]
  viability, T/C: 33.8%
[5]
  viability, T/C: 36.6%
[6]
  viability, T/C: 29.1%
[7]
  viability, T/C: 98.1%
[8]
  viability, T/C: 66.6%
[9]
  viability, T/C: 38.9%
[10]
  viability, T/C: 32.5%
[11]
  viability, T/C: 33.4%
[12]
  viability, T/C: 32.4%
[13]
  viability, T/C: 109%
[14]
  viability, T/C: 83%
[15]
  viability, T/C: 40.7%
[16]
  viability, T/C: 34%
[17]
  viability, T/C: 38.3%
[18]
  viability, T/C: 35.4%
[19]
  viability, T/C: 82.9%
[20]
  viability, T/C: 63.2%
[21]
  viability, T/C: 43.5%
[22]
  viability, T/C: 36.6%
[23]
  viability, T/C: 33.3%
[24]
  viability, T/C: 29.2%
[25]
  viability, T/C: 87.6%
[26]
  viability, T/C: 85.3%
[27]
  viability, T/C: 39.4%
[28]
  viability, T/C: 37.7%
[29]
  viability, T/C: 39.3%
[30]
  viability, T/C: 31.7%
[31]
  viability, T/C: 115%
[32]
  viability, T/C: 66.9%
[33]
  viability, T/C: 43.2%
[34]
  viability, T/C: 45.9%
[35]
  viability, T/C: 35%
[36]
  viability, T/C: 31.5%
